Experiment [1] has as its target T1, sterol C24-methyltransferase (TbSMT) (Trypanosoma brucei, UniProt Q4FKJ2).
T1 sequence (Q4FKJ2 1-359): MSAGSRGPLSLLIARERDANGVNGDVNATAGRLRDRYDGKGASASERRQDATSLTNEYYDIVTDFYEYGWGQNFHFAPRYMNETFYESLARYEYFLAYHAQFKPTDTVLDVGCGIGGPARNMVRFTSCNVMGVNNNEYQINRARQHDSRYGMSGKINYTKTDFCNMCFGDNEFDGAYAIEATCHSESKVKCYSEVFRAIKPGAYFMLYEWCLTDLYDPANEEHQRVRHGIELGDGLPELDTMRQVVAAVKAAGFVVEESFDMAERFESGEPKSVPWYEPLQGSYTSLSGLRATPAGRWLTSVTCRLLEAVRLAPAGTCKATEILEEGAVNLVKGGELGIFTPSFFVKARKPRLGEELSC
It counts as biochemical.

Experiment [2] concerns the target T1, sterol C24-methyltransferase (TbSMT). The experiment can be described thus: recombinant enzyme activity assay, Lineweaver-Burk inhibition. It counts as biochemical.

As a reminder, the pKi is the Ki on a negative log10 scale, so that one unit is a factor of ten.

pKi: −log10 of the molar value. Read-outs that look alike come from different tables or passages of the source.

Compound `CC(=CCC[C@@H](C)[C@H]1CC[C@H]2C3=CC=C4C[C@@H](O)CC[C@]4(C)[C@H]3CC[C@]12C)CF` [26FCT, 26-fluorocholesta-5,7,24-trienol] gave a pKi in experiment [1] of 4.12.
As for `CC(=CCC[C@@H](C)[C@H]1CC[C@@]2(C)C3=C(CC[C@]12C)[C@@]1(C)CC[C@H](O)C(C)(C)[C@@H]1CC3)CF` [26FL, 26-fluorolanosterol], the pKi in experiment [2] is 4.07.

The values above are taken from article PMC4624405 (Chemistry & biology, 2015).
